Test results: patent publication USRE37781E1, “Substituted cyclic carbonyls and derivatives thereof useful as retroviral protease inhibitors” (DuPont Pharmaceuticals Company, priority 1991, dated 2002)
Where two headings read alike, the source gives them in different places.

Experiments:
HIV-1 (RF) in MT-2 cells = experiment: microbe, parasite or virus in culture; assay type: cell-based
Experimental: DNA Plasmids and in vitro RNA transcripts:
Plasmid pDAB 72 containing both gag and pol sequences of BH10 (bp 113-1816) cloned into PTZ 19R was prepared according to Erickson-Viitanen et al. AIDS Research and Human Retroviruses 1989, 5, 577. The plasmid was linearized with Bam HI prior to the generation of in vitro RNA transcripts using the Riboprobe Gemini system II kit (Promega) with T7 RNA polymerase. Synthesized RNA was purified by treatment with RNase free DNAse (Promega), phenol-chloroform extraction, and ethanol precipitation. RNA transcripts were dissolved in water, and stored at −70° C. The concentration of RNA was determined from the A260.
Biotinylated capture probes were purified by HPLC after synthesis on an Applied Biosystems (Foster City, Calif.) DNA synthesizer by addition of biotin to the 5′ terminal end of the oligonucleotide, using the biotin-phosphoramidite reagent of Cocuzza, Tet. Lett. 1989, 30, 6287. The gag biotinylated capture probe (5-biotin-[…] 3′) was complementary to nucleotides 889-912 of HXB2 and the pol biotinylated capture probe (5′-biotin-[…] 3′) was complementary to nucleotides 2374-2395 of HXB2. Alkaline phosphatase conjugated oligonucleotides used as reporter probes were prepared by Syngene (San Diego, Calif.). The pol reporter probe (5′ […] 3′) was complementary to nucleotides 2403-2425 of HXB2. The gag reporter probe (5′ […] 3′) was complementary to nucleotides 950-973 of HXB2. All nucleotide positions are those of the GenBank Genetic Sequence Data Bank as accessed through the Genetics Computer Group Sequence Analysis Software Package (Devereau Nucleic Acids Research 1984, 12, 387). The reporter probes were prepared as 0.5μM stocks in 2× SSC (0.3M NaCl, 0.03M sodium citrate), 0.05M Tris pH 8.8, 1 mg/mL BSA. The biotinylated capture probes were prepared as 10 μM stocks in water.
Streptavidin coated plates:
Nunc-immunomodule microtiter plate strips were coated by addition of 200 μL of streptavidin (30 ug/mL, Scripps, La Jolla, Calif.) in freshly prepared 10 mM sodium carbonate (pH 9.6). Plates were incubated overnight at 4° C. Streptavidin solution was aspirated from the wells and a blocking buffer composed of phosphate buffered saline (PBS), 20 mg/mL bovine serum albumin (crystalline, nuclease and protease free, Calbiochem) and 100 mg/mL lactose (Sigma) was added to the plates for 3 hrs at room temperature. Blocking buffer was removed from the wells, which were allowed to dry overnight at room temperature and subsequently stored at 4° C. in zip lock bags with desiccant. For the majority of the compound evaluation experiments, streptavidin coated plates were obtained from Du Pont Biotechnology Systems (Boston, Mass.).
MT-2, CEM, and H9 cells were maintained in RPMI 1640 supplemented with 5% fetal calf serum (FCS), 2 mM L-glutamine and 50 μg/mL gentamycin, all from Gibco. Laboratory strains of HIV-1 (RF, MN and IIIB) were propagated in H9 cells in the same medium. Virus stocks were prepared approximately 1 month after acute infection of H9 cells by clarification of the tissue culture medium and storage of aliquots at −70° C. […] Each aliquot of virus stock used for infection was thawed only once. In some cases, infected H9 cells were shifted to Dulbecco's modified Eagle's medium 3-10 days before collection of virus in order to generate virus stocks in medium with low biotin content. Clinical isolates of HIV that had been passaged once in MT-2 cells were used to infect fresh MT-2 cells in RPMI medium. Three days after infection, cells were pelleted, resuspended and culture continued in Dulbecco's modified Eagle's medium as above. Virus stocks of clinical isolates were prepaid 10-15 days after infection when cytopathic effects were apparent in the culture.

[1] = biological target: single-chain tethered dimer of HIV protease (Human immunodeficiency virus 1, UniProt P04585); experiment: biochemical; assay type: biochemical; design: fused on or other part: A second copy of the same protease unit is joined to the first by a short peptide tether, giving one polypeptide
[2] = Table 2d, HIV protease inhibition, HPLC method, read-out: HPLC K1
[3] = Human immunodeficiency virus 1, MT2, 48 h, Table 2d, class symbols, read-out: IC90
[4] = read-out: HPLC K1, Table 2d, class symbols
[5] = Table 2d, class symbols, read-out: HPLC K1

N#Cc1cccc(CN2C(=S)N(Cc3ccc(CO)cc3)C(Cc3ccccc3)C(O)C(O)C2Cc2ccccc2)c1 (stereo not drawn) [Example 27H]
IC90 (HIV-1 (RF) in MT-2 cells; Table 2q): +++ (+++=<10 μg/mL) | Ki ([1]; Table 2q, read-out: HPLC Ki): < 10 nM

CNC(=S)NCCCCCN1C(=O)N(CCCCCNC(=S)NC)C(Cc2ccccc2)C(O)C(O)C1Cc1ccccc1 (stereo not drawn) [15EV]
IC90 (HIV-1 (RF) in MT-2 cells; Table 2d, HIV RNA assay): ++/+ (The ++/+ is used in the cases where an IC90 was determined to be >50 μg/mL) | Ki [1, 2]: 10 to 1000 nM

CCNc1n[nH]c2ccc(CN3C(=O)N(Cc4ccc5[nH]nc(NCC)c5c4)C(Cc4ccccc4)C(O)C(O)C3Cc3ccccc3)cc12 (stereo not drawn) [15DJ]
IC90 (HIV-1 (RF) in MT-2 cells; Table 2d, HIV RNA assay): +++ (+++=<10 μg/mL) | Ki [1, 2]: < 10 nM

O=C1N(CCCCC(O)CBr)C(Cc2ccccc2)C(O)C(O)C(Cc2ccccc2)N1CCCCC(O)CBr (stereo not drawn) [Example 13G]
IC90 (HIV-1 (RF) in MT-2 cells; [3]): < 10 µg/mL | Ki [1, 4]: < 10 nM

O=C(NCCCCCN1C(=O)N(CCCCCNC(=O)c2ccccc2F)C(Cc2ccccc2)C(O)C(O)C1Cc1ccccc1)c1ccc(F)cc1 (stereo not drawn) [15FC]
IC90 (HIV-1 (RF) in MT-2 cells; HIV RNA assay, HIV-1 infected MT-2 cells, Table 2d): ++/+ (The ++/+ is used in the cases where an IC90 was determined to be >50 μg/mL) | Ki ([1]; HIV protease inhibition, HPLC method, Table 2d, read-out: HPLC K1): 10 to 1000 nM

O=C1N(Cc2cccc(CO)c2)C(Cc2ccc(F)cc2)C(O)C(O)C(Cc2ccc(F)cc2)N1Cc1cccc(CO)c1 (stereo not drawn) [20T]
IC90 (HIV-1 (RF) in MT-2 cells; Table 2i): +++ (+++=<10 μg/mL) | Ki ([1]; Table 2i, read-out: HPLC Ki): < 10 nM

O=C1N(Cc2ccccc2)[C@H](Cc2ccccc2)C[C@@H](O)[C@@H](Cc2ccccc2)N1Cc1ccccc1 [Example 7AN]
Mass Spec M + H (class symbols printed in this column) (HIV-1 (RF) in MT-2 cells; Table 1d, lower part): +++ (+++=<10 μg/mL) | Ki ([1]; read-out: HPLC Ki, Table 1d, lower part): < 10 nM

CNC(=NO)c1cccc(CN2C(=O)N(Cc3cccc(C(=NO)NC)c3)C(Cc3ccccc3)C(O)C(O)C2Cc2ccccc2)c1 (stereo not drawn) [15AZ]
IC90 (HIV-1 (RF) in MT-2 cells; Table 2d, HIV RNA assay): +++ (+++=<10 μg/mL) | Ki [1, 2]: < 10 nM

CN(C)S(=O)(=O)n1ccnc1-c1cccc(CN2C(=O)N(Cc3cccc(-c4nccn4S(=O)(=O)N(C)C)c3)C(Cc3ccccc3)C(O)C(O)C2Cc2ccccc2)c1 (stereo not drawn) [Example 15BM]
IC90 (HIV-1 (RF) in MT-2 cells; Human immunodeficiency virus 1, MT2, 48 h, Table 2d, HIV RNA assay, read-out: IC90): < 10 µg/mL | Ki ([1]; read-out: HPLC K1, Table 2d, HIV protease inhibition, HPLC method): 10 to 1000 nM

COc1cccc(CC2C(O)C(O)C(Cc3cccc(OC)c3)N(Cc3ccc(CO)cc3)C(=O)N2Cc2ccc(CO)cc2)c1 (stereo not drawn) [20AT]
IC90 (HIV-1 (RF) in MT-2 cells; Table 2i): +++ (+++=<10 μg/mL) | Ki ([1]; Table 2i, read-out: HPLC Ki): < 10 nM

NC(=NO)c1cccc(CN2C(=O)N(Cc3cccc(C(N)=NO)c3)C(Cc3ccc(F)cc3)C(O)C(O)C2Cc2ccc(F)cc2)c1 (stereo not drawn) [20X]
IC90 (HIV-1 (RF) in MT-2 cells; Human immunodeficiency virus 1, MT2, Table 2i, read-out: IC90): < 10 µg/mL | Ki ([1]; read-out: HPLC Ki, Table 2i): < 10 nM

COc1cccc(CN2C(=S)N(Cc3cccc(OC)c3)C(Cc3ccccc3)C(O)C(O)C2Cc2ccccc2)c1 (stereo not drawn) [Example 27G]
IC90 (HIV-1 (RF) in MT-2 cells; Table 2q): +++ (+++=<10 μg/mL) | Ki ([1]; Table 2q, read-out: HPLC Ki): < 10 nM

COC(=O)c1cccc(CN2C(Cc3ccc(F)cc3)C(O)C(O)C(Cc3ccc(F)cc3)N(Cc3cccc(C(=O)OC)c3)S2(=O)=O)c1 (stereo not drawn) [31A]
IC90 (HIV-1 (RF) in MT-2 cells; Table 2u): +++ (+++=<10 μg/mL) | IC90 (HIV-1 (RF) in MT-2 cells; Table 2u (second printing)): +++ (+++=<10 μg/mL) | Ki ([1]; Table 2u (second printing), HPLC method, read-out: K1 (HPLC)): 10 to 1000 nM | Ki ([1]; Table 2u, HPLC method, read-out: K1 (HPLC)): 10 to 1000 nM

C=CCN1C(=O)N(CC=C)C(Cc2ccccc2)C(O)C(O)C1Cc1ccccc1 (stereo not drawn) [Example 13K]
IC90 (HIV-1 (RF) in MT-2 cells; Table 2d, class symbols): +++ (+++=<10 μg/mL) | Ki [1, 5]: < 10 nM

O=C1N(Cc2cccc(CNOCc3ccccc3)c2)C(Cc2ccccc2)C(O)C(O)C(Cc2ccccc2)N1Cc1cccc(CNOCc2ccccc2)c1 (stereo not drawn) [Example 9F]
IC90 (HIV-1 (RF) in MT-2 cells; Table 2d, class symbols): + (+=>100 μg/mL) | Ki [1, 5]: 10 to 1000 nM

O=C1N(CCCCCCO)C(Cc2ccccc2)C(O)C(O)C(Cc2ccccc2)N1CCCCCCO (stereo not drawn) [Example 12D]
IC90 (HIV-1 (RF) in MT-2 cells; [3]): < 10 µg/mL | Ki [1, 4]: < 10 nM

CC(=O)OCCCCCCN1C(=O)N(CCCCCCO)C(Cc2ccccc2)C(O)C(O)C1Cc1ccccc1 (stereo not drawn) [Example 12V]
IC90 (HIV-1 (RF) in MT-2 cells; [3]): < 10 µg/mL | Ki [1, 4]: 10 to 1000 nM
